Assay results: publication PMC3004370, “PI3Kα Inhibitors That Inhibit Metastasis” (Oncotarget, 2010)
Counter-ions that a name gives are not always drawn.

Key:
p110α = target: T1, p110α (Homo sapiens, UniProt P42336); assay: Biochemical PI3K inhibition assay, p110α; conditions: for IC50: 10 μM ATP, two hours; for effect of substitution on PI3Kα potency/selectivity (in words): SAR discussion
T1 construct: His-tag; made in house; host or cells: Sf9 insect cells (baculovirus)
Method: PIK3CD was generously provided by Novartis Pharmaceuticals. […] Sf9 cells were lysed in a buffer containing 50 mM sodium phosphate, pH 8.0, 400 mM NaCl, 5% glycerol, 1% Triton X-100, 10 mM 2-mercaptoethanol, 1 mM orthovanadate, 10 mM imidazole, and sonicated on ice for 1 minute. Proteins were purified by adding Ni-NTA Superflow beads (Qiagen, Valencia, CA, USA) to the lysate and subsequent rolling for 30 min at 4°C. Beads were washed twice with 50 mM phosphate buffer, pH 8.0, 0.5 M NaCl, 50 mM Imidazole, 2 mM DTT and eluted in the same buffer but with 200 mM imidazole. Purified PI3K's were mixed 1:1 with glycerol and stored at -20°C.
J-series inhibitors were dissolved, serial diluted in DMSO and deposited into 96 well plates at a final DMSO concentration of 1%. We used a novel assay to determine their potency and selectivity. […] Reactions were timed after the addition of 10 μM ATP with 40 μCi/ml γ-32P-ATP (PerkinElmer, Waltham, MA, USA) and 2 mM MgCl2 (all final concentrations). The reactions were terminated after two hours by the addition of 2 N HCl and the lipids extracted with 1:1 MetOH/Chloroform. Radio-labeled phosphatidyl-inositol-3-phosphate in the extracted organic fraction was quantified after the addition of Microscint O (PerkinElmer) using a TopCount 96 well plate scintillation counter (PerkinElmer). IC50 concentrations and inhibition curves were calculated using Prism 5 (GraphPad Software, La Jolla, CA).

p110β = target: T2, p110β (Homo sapiens, UniProt P42338); assay: Biochemical PI3K inhibition assay, p110β; conditions: for IC50: 10 μM ATP, two hours
T2 construct: His-tag; made in house; host or cells: Sf9 insect cells (baculovirus)
T2 sequence (P42338 whole entry): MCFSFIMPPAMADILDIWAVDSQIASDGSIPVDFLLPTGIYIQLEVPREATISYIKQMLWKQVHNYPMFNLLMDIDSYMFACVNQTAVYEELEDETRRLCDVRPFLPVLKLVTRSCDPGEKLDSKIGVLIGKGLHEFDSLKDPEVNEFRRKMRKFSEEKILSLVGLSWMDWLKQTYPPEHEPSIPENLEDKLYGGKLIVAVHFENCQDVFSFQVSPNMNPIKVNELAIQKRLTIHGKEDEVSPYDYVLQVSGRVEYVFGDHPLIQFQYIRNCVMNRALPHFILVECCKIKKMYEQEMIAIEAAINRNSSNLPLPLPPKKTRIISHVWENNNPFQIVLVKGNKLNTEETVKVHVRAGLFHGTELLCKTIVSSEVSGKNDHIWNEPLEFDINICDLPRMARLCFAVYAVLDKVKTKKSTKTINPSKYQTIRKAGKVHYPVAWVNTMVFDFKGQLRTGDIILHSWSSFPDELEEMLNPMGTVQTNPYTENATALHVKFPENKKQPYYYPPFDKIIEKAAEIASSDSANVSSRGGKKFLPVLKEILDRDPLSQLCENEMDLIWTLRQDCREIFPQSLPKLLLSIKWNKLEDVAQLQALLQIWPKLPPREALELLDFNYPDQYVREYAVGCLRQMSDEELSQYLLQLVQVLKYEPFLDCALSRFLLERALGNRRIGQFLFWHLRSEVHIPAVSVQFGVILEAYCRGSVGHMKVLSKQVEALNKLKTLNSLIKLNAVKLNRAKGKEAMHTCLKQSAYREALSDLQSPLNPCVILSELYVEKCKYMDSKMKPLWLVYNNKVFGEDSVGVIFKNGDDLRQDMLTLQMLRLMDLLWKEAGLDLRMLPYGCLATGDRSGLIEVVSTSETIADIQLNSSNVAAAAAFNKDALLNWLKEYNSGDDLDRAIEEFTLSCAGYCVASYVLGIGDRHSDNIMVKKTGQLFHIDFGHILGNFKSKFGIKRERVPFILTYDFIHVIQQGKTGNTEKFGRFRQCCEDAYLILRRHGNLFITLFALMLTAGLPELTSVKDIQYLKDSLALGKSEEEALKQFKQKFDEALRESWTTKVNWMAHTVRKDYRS
T2 sequence (P27986 322-600 partner limits assumed): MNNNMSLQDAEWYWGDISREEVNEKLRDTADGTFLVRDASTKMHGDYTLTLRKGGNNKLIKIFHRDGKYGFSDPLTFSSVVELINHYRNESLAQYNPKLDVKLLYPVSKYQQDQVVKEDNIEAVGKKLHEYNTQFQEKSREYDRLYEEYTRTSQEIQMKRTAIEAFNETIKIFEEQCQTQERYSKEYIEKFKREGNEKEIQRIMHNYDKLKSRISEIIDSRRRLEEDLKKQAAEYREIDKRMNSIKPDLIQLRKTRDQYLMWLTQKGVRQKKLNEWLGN
Description: (§1) cDNA clones of PIK3CA, PIK3CB and PIK3CG were obtained from Origene (Rockville, MD, USA). PIK3CD was generously provided by Novartis Pharmaceuticals. The cDNA clones were sub-cloned into pFastBac His-Tag (Invitrogen, Carlsbad, CA, USA) and baculovirus clones were generated by the Bac-to-Bac expression system (Invitrogen). p110α, p110β and p110δ were co-expressed in Sf9 insect cells (Invitrogen) with a nSH2-iSH2 fragment of the regulatory subunit p85 comprising AA residues 322 to 600 [4]. p110γ was expressed without a regulatory subunit. Sf9 cells were lysed in a buffer containing 50 mM sodium phosphate, pH 8.0, 400 mM NaCl, 5% glycerol, 1% Triton X-100, 10 mM 2-mercaptoethanol, 1 mM orthovanadate, 10 mM imidazole, and sonicated on ice for 1 minute. Proteins were purified by adding Ni-NTA Superflow beads (Qiagen, Valencia, CA, USA) to the lysate and subsequent rolling for 30 min at 4°C. Beads were washed twice with 50 mM phosphate buffer, pH 8.0, 0.5 M NaCl, 50 mM Imidazole, 2 mM DTT and eluted in the same buffer but with 200 mM imidazole. Purified PI3K's were mixed 1:1 with glycerol and stored at -20°C.
(§2) J-series inhibitors were dissolved, serial diluted in DMSO and deposited into 96 well plates at a final DMSO concentration of 1%. We used a novel assay to determine their potency and selectivity. In brief, micelles of 2.5 μg L-a-Phosphatidylinositol and 2.5 μg 1,2-Diacyl-sn-glycero-3-phospho-L-serine were formed by sonication, mixed with the individual PI3K isoforms and added to the drug dilutions in a reaction buffer containing 10 mM HEPES, 25 mM NaCl, 0.125 μg/μl BSA, and 2 mM BME (final concentrations). Reactions were timed after the addition of 10 μM ATP with 40 μCi/ml γ-32P-ATP (PerkinElmer, Waltham, MA, USA) and 2 mM MgCl2 (all final concentrations). The reactions were terminated after two hours by the addition of 2 N HCl and the lipids extracted with 1:1 MetOH/Chloroform. Radio-labeled phosphatidyl-inositol-3-phosphate in the extracted organic fraction was quantified after the addition of Microscint O (PerkinElmer) using a TopCount 96 well plate scintillation counter (PerkinElmer). IC50 concentrations and inhibition curves were calculated using Prism 5 (GraphPad Software, La Jolla, CA).

p110γ = target: T3, p110γ (Homo sapiens, UniProt P48736); assay: Biochemical PI3K inhibition assay, p110γ; conditions: for IC50: 10 μM ATP, two hours, no regulatory subunit
T3 construct: His-tag; made in house; host or cells: Sf9 insect cells (baculovirus)
T3 sequence (P48736 whole entry): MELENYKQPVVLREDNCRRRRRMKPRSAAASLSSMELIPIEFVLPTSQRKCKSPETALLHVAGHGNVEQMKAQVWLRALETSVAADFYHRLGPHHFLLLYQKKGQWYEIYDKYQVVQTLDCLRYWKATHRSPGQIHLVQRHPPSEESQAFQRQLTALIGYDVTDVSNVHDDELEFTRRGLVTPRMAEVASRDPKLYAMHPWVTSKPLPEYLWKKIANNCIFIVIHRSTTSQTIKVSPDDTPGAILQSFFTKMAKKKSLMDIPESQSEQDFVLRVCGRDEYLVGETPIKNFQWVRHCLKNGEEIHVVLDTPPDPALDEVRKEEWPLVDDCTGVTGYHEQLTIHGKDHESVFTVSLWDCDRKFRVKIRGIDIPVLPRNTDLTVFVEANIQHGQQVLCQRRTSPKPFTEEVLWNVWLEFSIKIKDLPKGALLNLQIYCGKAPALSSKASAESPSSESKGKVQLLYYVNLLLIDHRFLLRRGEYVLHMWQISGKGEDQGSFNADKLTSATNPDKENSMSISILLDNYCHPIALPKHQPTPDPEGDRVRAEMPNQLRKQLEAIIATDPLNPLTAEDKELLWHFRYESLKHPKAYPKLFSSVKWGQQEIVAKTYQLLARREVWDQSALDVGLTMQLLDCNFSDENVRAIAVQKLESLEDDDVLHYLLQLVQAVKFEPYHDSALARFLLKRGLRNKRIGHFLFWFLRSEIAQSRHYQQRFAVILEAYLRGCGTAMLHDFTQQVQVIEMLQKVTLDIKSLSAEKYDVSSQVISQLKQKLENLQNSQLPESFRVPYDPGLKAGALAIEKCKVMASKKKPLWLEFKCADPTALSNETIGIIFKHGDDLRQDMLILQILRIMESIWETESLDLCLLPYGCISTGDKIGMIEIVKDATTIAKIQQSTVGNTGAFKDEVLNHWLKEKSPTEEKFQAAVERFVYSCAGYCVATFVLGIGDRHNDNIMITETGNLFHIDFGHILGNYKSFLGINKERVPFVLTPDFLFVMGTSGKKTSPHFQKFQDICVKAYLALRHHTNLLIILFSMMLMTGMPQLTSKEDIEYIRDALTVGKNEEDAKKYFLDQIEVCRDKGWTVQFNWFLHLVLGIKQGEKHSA
Description: as §1, §2

p110δ = target: T4, p110δ (Homo sapiens, UniProt O00329); assay: Biochemical PI3K inhibition assay, p110δ; conditions: for IC50: 10 μM ATP, two hours
T4 construct: His-tag; made in house; host or cells: Sf9 insect cells (baculovirus)
T4 sequence (O00329 whole entry): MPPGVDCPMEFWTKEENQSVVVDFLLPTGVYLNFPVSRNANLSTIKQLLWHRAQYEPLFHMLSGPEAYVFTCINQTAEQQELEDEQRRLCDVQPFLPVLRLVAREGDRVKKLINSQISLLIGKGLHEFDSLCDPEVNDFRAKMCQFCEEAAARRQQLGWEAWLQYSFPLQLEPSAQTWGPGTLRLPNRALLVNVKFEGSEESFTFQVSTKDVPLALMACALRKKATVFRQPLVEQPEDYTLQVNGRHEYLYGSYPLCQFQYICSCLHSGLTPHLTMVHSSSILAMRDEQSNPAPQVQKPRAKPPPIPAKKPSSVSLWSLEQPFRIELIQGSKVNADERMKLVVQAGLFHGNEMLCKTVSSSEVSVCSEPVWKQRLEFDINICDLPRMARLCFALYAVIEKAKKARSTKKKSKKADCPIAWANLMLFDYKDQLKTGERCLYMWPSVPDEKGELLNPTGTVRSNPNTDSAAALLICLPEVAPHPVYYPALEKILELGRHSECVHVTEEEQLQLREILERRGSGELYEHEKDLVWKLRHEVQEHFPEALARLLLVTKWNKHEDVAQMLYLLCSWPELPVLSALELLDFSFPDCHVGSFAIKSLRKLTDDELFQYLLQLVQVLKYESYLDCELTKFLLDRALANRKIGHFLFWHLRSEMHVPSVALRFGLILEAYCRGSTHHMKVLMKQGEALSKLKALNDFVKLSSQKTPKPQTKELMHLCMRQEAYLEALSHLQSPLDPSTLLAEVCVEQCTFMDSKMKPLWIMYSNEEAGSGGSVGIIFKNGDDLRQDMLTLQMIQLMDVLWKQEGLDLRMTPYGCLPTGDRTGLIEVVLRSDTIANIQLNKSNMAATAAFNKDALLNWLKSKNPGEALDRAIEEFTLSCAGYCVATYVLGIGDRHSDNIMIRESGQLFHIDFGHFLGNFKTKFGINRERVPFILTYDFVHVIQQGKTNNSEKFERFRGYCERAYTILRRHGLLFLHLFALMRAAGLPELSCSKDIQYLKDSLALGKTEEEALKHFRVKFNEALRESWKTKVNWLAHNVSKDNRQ
T4 sequence (P27986 322-600 partner limits assumed): as the sequence (P27986 322-600 partner limits assumed) above
Description: as §1, §2

T1 sequence (P42336 whole entry): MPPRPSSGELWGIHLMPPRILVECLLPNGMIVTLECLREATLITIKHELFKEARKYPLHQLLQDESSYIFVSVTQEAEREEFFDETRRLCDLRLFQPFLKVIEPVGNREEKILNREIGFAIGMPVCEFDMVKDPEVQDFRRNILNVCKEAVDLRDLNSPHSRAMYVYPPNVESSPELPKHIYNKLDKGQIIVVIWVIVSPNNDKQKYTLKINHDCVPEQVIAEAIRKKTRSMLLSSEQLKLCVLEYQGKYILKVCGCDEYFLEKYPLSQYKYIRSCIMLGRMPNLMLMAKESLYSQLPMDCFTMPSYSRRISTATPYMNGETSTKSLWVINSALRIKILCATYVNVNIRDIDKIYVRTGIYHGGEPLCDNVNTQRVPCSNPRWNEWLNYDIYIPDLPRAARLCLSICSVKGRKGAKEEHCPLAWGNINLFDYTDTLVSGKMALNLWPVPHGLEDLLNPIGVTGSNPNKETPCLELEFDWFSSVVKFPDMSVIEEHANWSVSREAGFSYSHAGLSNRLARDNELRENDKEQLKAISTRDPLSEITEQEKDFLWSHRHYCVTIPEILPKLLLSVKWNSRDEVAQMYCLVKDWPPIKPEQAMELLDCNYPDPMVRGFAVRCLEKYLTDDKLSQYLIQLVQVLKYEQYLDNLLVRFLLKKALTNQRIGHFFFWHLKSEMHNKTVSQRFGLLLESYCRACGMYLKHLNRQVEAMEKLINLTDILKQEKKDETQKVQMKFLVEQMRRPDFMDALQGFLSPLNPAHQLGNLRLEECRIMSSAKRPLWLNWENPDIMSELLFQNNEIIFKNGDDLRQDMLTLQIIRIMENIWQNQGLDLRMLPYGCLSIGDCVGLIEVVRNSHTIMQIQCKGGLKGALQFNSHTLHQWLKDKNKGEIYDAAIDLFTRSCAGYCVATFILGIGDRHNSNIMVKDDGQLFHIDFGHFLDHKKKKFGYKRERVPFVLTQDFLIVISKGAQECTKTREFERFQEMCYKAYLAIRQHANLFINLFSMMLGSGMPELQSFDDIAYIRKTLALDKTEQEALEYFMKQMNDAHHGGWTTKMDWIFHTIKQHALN
T1 sequence (P27986 322-600 partner limits assumed): as the sequence (P27986 322-600 partner limits assumed) above

Compound | IC50 (p110α) | effect of substitution on PI3Kα potency/selectivity (in words) (p110α) | IC50 (p110β) | IC50 (p110γ) | IC50 (p110δ) | increase of inhibitory activity for PI3Kα (p110α; compared to J32) | drop/decrease in inhibitory activity for PI3Kα (p110α; compared to J32) | selectivity against PI3Kβ (p110β; relative to PI3Kα) | selectivity against PI3Kγ (p110γ; relative to PI3Kα) | selectivity against PI3Kδ (p110δ; relative to PI3Kα)
Cc1ccc([N+](=O)[O-])cc1S(=O)(=O)N(C)/N=C/c1cnc2ccc(Br)cn12 [J27, N'-[(1E)-(6-Bromoimidazo [1,2-a]pyridin-3-yl)methylene]-N,2-dimethyl-5-nitrobenzenesulfonohydrazide hydrochloride, reference compound] | – | – | – | 75 nM | – | – | – | – | – | –
CCN(/N=C/c1cnc2ccc(Br)cn12)S(=O)(=O)c1cc([N+](=O)[O-])c(F)cc1C [J120] | 24 nM | did not impact the inhibitory activity for PI3Kα substantially | 1900 nM | 1800 nM | 470 nM | – | – | – | – | –
CCN(/N=C/c1cnc2ccc(Br)cn12)S(=O)(=O)c1cc([N+](=O)[O-])c(NCC(=O)O)cc1C [J159] | 4 nM | – | 1880 nM | 32 nM | 348 nM | 3.8 fold | – | – | – | –
CCN(/N=C/c1cnc2ccc(Br)cn12)S(=O)(=O)c1cc([N+](=O)[O-])c(NCCO)cc1C [J162] | 25 nM | did not impact the inhibitory activity for PI3Kα substantially | 2400 nM | 210 nM | 400 nM | – | – | – | – | –
CCN(/N=C/c1cnc2ccc(Br)cn12)S(=O)(=O)c1cc(S(C)(=O)=O)ccc1C [J41] | 23200 nM | impaired potency | 235000 nM | 253000 nM | 3550 nM | – | – | – | – | –
CCN(/N=C/c1cnc2ccc(Br)cn12)S(=O)(=O)c1cc([N+](=O)[O-])c(O)cc1C [J129] | 20 nM | did not impact the inhibitory activity for PI3Kα substantially | 510 nM | 150 nM | 66 nM | – | – | – | – | –
CCN(/N=C/c1cnc2ccc(Br)cn12)S(=O)(=O)c1cc([N+](=O)[O-])c(NCCOC)cc1C [J157] | 24 nM | did not impact the inhibitory activity for PI3Kα substantially | 3000 nM | 1000 nM | 430 nM | – | – | – | – | –
Cc1ccc([N+](=O)[O-])cc1S(=O)(=O)N(Cc1ccccc1)/N=C/c1cnc2ccc(Br)cn12 [J30] | 730 nM | – | 6310 nM | 3160 nM | 781 nM | – | 6 to 49 fold | – | – | –
CCN(/N=C/c1cnc2ccc(Br)cn12)S(=O)(=O)c1cccc([N+](=O)[O-])c1 [J37] | 55 nM | – | 3060 nM | 801 nM | 476 nM | – | greater than 3.6 fold | – | – | –
CCOC(=O)CN(/N=C/c1cnc2ccc(Br)cn12)S(=O)(=O)c1cc([N+](=O)[O-])ccc1C [J43] | 154 nM | did not increase potency | 1900 nM | 930 nM | 363 nM | – | – | – | – | –
CCN(/N=C/c1cnc2ccc(Br)cn12)S(=O)(=O)c1cc(C(=O)O)ccc1C [J100] | 121 nM | impaired potency | 2000 nM | 5120 nM | 173 nM | – | – | – | – | –
Cc1ccc([N+](=O)[O-])cc1S(=O)(=O)N(/N=C/c1cnc2ccc(Br)cn12)C(C)C [J55] | 93 nM | – | 2420 nM | 3340 nM | 760 nM | – | 6 to 49 fold | – | – | –
CCN(/N=C/c1cnc2ccc(Br)cn12)S(=O)(=O)c1cc([N+](=O)[O-])c(NCC(N)=O)cc1C [J163] | 14 nM | did not impact the inhibitory activity for PI3Kα substantially | 2100 nM | 74 nM | 130 nM | – | – | – | – | –
CCN(/N=C/c1cnc2ccc(Br)cn12)S(=O)(=O)c1cc([N+](=O)[O-])c(NCCOCCO)cc1C [J158] | 17 nM | did not impact the inhibitory activity for PI3Kα substantially | 3500 nM | 200 nM | 440 nM | – | – | – | – | –
CCN(/N=C/c1cnc2ccc(Br)cn12)S(=O)(=O)c1cc([N+](=O)[O-])c(NCC(=O)NC(Cc2ccccc2)C(=O)O)cc1C (stereo not drawn) [J171] | 19 nM | retained nanomolar potencies | 12800 nM | 1150 nM | 1960 nM | – | – | ~ 670 fold | 60 fold | 100 fold
CCN(/N=C/c1cnc2ccc(Br)cn12)S(=O)(=O)c1cc([N+](=O)[O-])c(NCC(=O)OC)cc1C [J161] | 33 nM | did not impact the inhibitory activity for PI3Kα substantially | – | 940 nM | 16000 nM | – | – | – | – | –

Other lines, results leading:

IC50 (p110α) | effect of substitution on PI3Kα potency/selectivity (in words) (p110α) | IC50 (p110β) | IC50 (p110γ) | IC50 (p110δ) | increase of inhibitory activity for PI3Kα (p110α; compared to J32) | drop/decrease in inhibitory activity for PI3Kα (p110α; compared to J32) | selectivity against PI3Kβ (p110β; relative to PI3Kα) | selectivity against PI3Kγ (p110γ; relative to PI3Kα) | selectivity against PI3Kδ (p110δ; relative to PI3Kα) | Compound
20000 nM | – | 61000 nM | 180000 nM | 53000 nM | – | > 1333 fold | – | – | – | CCN(/N=C/c1cnc2ccc(Br)cn12)S(=O)(=O)c1ccccc1C [J40]
4400 nM | impaired potency | 21000 nM | 30000 nM | 28000 nM | – | – | – | – | – | CCN(/N=C/c1cnc2ccc(Br)cn12)S(=O)(=O)c1cc(N)ccc1C [J44]
309 nM | – | 2970 nM | 1750 nM | 485 nM | – | 6 to 49 fold | – | – | – | Cc1ccc([N+](=O)[O-])cc1S(=O)(=O)N(CC(C)C)/N=C/c1cnc2ccc(Br)cn12 [J46]
76 nM | impaired potency | 600 nM | 1000 nM | 38 nM | – | – | – | – | – | CCN(/N=C/c1cnc2ccc(Br)cn12)S(=O)(=O)c1cc(C(N)=O)ccc1Cl [J125]
22 nM | maintain potency and isoform selectivity | 936 nM | 812 nM | 266 nM | – | – | – | – | – | CCN(/N=C/c1cnc2ccc(Br)cn12)S(=O)(=O)c1cc([N+](=O)[O-])ccc1Cl [J101]
25 nM | did not increase potency | 149 nM | 192 nM | 169 nM | – | – | – | – | – | Cc1ccc([N+](=O)[O-])cc1S(=O)(=O)N(CCC#N)/N=C/c1cnc2ccc(Br)cn12 [J47]
11 nM | – | 8200 nM | 140 nM | 230 nM | – | – | – | – | – | CCN(/N=C/c1cnc2ccc(Br)cn12)S(=O)(=O)c1cc([N+](=O)[O-])c(NC(C)C(=O)O)cc1C (stereo not drawn) [J160]
20 nM | decreased selectivity for the latter | 75 nM | 132 nM | 16 nM | – | – | – | – | – | CCN(/N=C/c1cnc2ccc(Br)cn12)C(=O)c1cc([N+](=O)[O-])ccc1C [J45]
